The subject of series [1] is HBV. In words: Anti-HBV activity, HepG2.2.15 stable transfected cell line, HBV DNA from secreted virions by realtime PCR. The series is classed as cell-based. As to conditions: Hepatitis B virus.
In series [2] the test system is HBV. In words: Anti-HBV activity, HepG2.117 inducible HBV producing cell line (Tet-off), intracellular HBV DNA by realtime PCR. To be noted: Hepatitis B virus. The format is cell-based.
Series [3] is described as follows: Cytotoxicity in HepG2 cells, Resazurin viability assay. As to conditions: human, HepG2 cells. On the technique in general: Resazurin is reduced to fluorescent resorufin, in cell work by metabolically active cells.
The mark [4] stands for this setting: 144 h, HepG2.2.15 cells, 6 days of treatment, HBV DNA from secreted virions, read-out: HepG 2.2.15 EC50.
Setting [5] is: 72 h, HepG2.117 cells, 3 days of treatment, intracellular HBV DNA, read-out: HepG2 117 EC50.
The mark [6] stands for this setting: HepG2.2.15, 144 h, read-out: HepG 2.2.15 EC50 (μM).
Where [7] appears, read: HepG2.117, 72 h, read-out: HepG2 117 EC50 (μM).

Each structure is given as a SMILES string.

Turning to `CC[C@@H](C)NC(=O)C(=O)c1cc(C(=O)Nc2ccc(F)c(C)c2)n(C)c1` [Compound 1, (R)-4-(2-(sec-butylamino)-2-oxoacetyl)-N-(4-fluoro-3-methylphenyl)-1-methyl-1H-pyrrole-2-carboxamide], the melting point was found to be 136.5 °C. Also, in the series with HBV [1] (setting [4]), the half-maximal effective concentration (EC50) stood at 0.014 µM. In addition, the EC50 with HBV [2] (setting [5]) stood at 0.1 µM. In series [3], this compound showed a half-maximal cytotoxic concentration (CC50) at 4 days above 25 µM.
`Cc1cc(NC(=O)c2cc(C(=O)C(=O)NC3(C)COC3)cn2C)ccc1F` [Compound 4, N-(4-fluoro-3-methylphenyl)-1-methyl-4-(2-(3-methyloxetan-3-ylamino)-2-oxoacetyl)-1H-pyrrole-2-carboxamide] registered a melting point of 145.1 °C. Also, the EC50 in the series on HBV [1] (setting [6]) was determined as 0.013 µM. Further, the EC50 in the series on HBV [2] (setting [7]) amounted to 0.015 µM. This compound displayed a CC50 at 4 days in series [3] above 25 µM.
The compound `Cc1cc(NC(=O)c2cc(C(=O)C(=O)N[C@H](C)C(F)(F)F)cn2C)ccc1F` [Compound 5, (R)—N-(4-fluoro-3-methylphenyl)-1-methyl-4-(2-oxo-2-(1,1,1-trifluoropropan-2-ylamino)acetyl)-1H-pyrrole-2-carboxamide] yielded a melting point of 156.9 °C. Further, the EC50 in the series on HBV [1] (setting [4]) stood at 0.056 µM. Also, the EC50 with HBV [2] (setting [5]) is 0.099 µM. Also, the CC50 at 4 days in series [3] was above 25 µM.
`Cc1cc(NC(=O)c2cc(C(=O)C(=O)N[C@H]3CCOC3)cn2C)ccc1F` [Compound 6, (S)—N-(4-fluoro-3-methylphenyl)-1-methyl-4-(2-oxo-2-(tetrahydrofuran-3-ylamino)acetyl)-1H-pyrrole-2-carboxamide]: the melting point was determined as 155.7 °C. Besides, the EC50 in the series with HBV [1] (setting [6]) came to 0.047 µM. In the series with HBV [2] (setting [7]), the EC50 came to 0.19 µM. In series [3], the CC50 at 4 days is above 25 µM.
For the compound `COC(=O)C(C)(C)NC(=O)C(=O)c1cc(C(=O)Nc2ccc(F)c(C)c2)n(C)c1` [Compound 7, methyl 2-(2-(5-(4-fluoro-3-methylphenylcarbamoyl)-1-methyl-1H-pyrrol-3-yl)-2-oxoacetamido)-2-methylpropanoate], the melting point came to 161 °C. Further, the EC50 in the series with HBV [1] (setting [6]) was 0.21 µM. For the same compound, in the series on HBV [2] (setting [7]), the EC50 was 0.058 µM. Further, the CC50 at 4 days in series [3] was above 25 µM.
Consider `Cn1cc(C(=O)C(=O)NC(C)(C)C)cc1C(=O)Nc1ccc(F)c(F)c1` [Compound 10, 4-(2-(tert-butylamino)-2-oxoacetyl)-N-(3,4-difluorophenyl)-1-methyl-1H-pyrrole-2-carboxamide], for which the melting point was 170.7 °C. Also, the EC50 with HBV [1] (setting [4]) is 0.072 µM. Moreover, in the series on HBV [2] (setting [5]), the EC50 came out at 0.042 µM. Besides, the CC50 at 4 days in series [3] is above 25 µM.
`Cn1cc(C(=O)C(=O)NC2(C)COC2)cc1C(=O)Nc1ccc(F)c(F)c1` [Compound 11, N-(3,4-difluorophenyl)-1-methyl-4-(2-(3-methyloxetan-3-ylamino)-2-oxoacetyl)-1H-pyrrole-2-carboxamide]: the melting point is 180.7 °C. The EC50 in the series on HBV [1] (setting [4]) stood at 0.05 µM. For the same compound, the EC50 in the series on HBV [2] (setting [5]) is 0.096 µM. This compound came in with a CC50 at 4 days in series [3] above 25 µM.
Consider `Cn1cc(C(=O)C(=O)NC2(C)COC2)cc1C(=O)Nc1cccc(C(F)(F)F)c1` [Compound 13, 1-methyl-4-(2-(3-methyloxetan-3-ylamino)-2-oxoacetyl)-N-(3-(trifluoro-methyl)phenyl)-1H-pyrrole-2-carboxamide], for which the results for the EC50 with HBV [1] (setting [4]) and in the series with HBV [2] (setting [5]) were 0.033 µM and above 1 µM, respectively. The compound further showed a CC50 at 4 days in series [3] above 25 µM.
In the case of `Cn1cc(C(=O)C(=O)NC(C)(C)C)cc1C(=O)Nc1cc(F)c(F)c(Cl)c1` [Compound 14, 4-(2-(tert-butylamino)-2-oxoacetyl)-N-(3-chloro-4,5-difluorophenyl)-1-methyl-1H-pyrrole-2-carboxamide], the figures for the EC50 in the series on HBV [1] (setting [4]) and in the series on HBV [2] (setting [5]) were 0.03 µM and 0.038 µM, respectively. This compound displayed a CC50 at 4 days in series [3] above 25 µM.
Consider `Cn1cc(C(=O)C(=O)NC(C)(C)C)cc1C(=O)Nc1ccc(F)c(C#N)c1` [Compound 15, 4-(2-(tert-butylamino)-2-oxoacetyl)-N-(3-cyano-4-fluorophenyl)-1-methyl-1H-pyrrole-2-carboxamide], for which the EC50 stood at 0.027 µM in the series with HBV [1] (setting [4]) and 0.043 µM in the series with HBV [2] (setting [5]). This compound also gave a CC50 at 4 days in series [3] above 25 µM.
On to `Cn1cc(C(=O)C(=O)NC2(C)COC2)cc1C(=O)Nc1ccc(F)c(C#N)c1` [Compound 16, N-(3-Cyano-4-fluorophenyl)-1-methyl-4-{[(3-methyloxetan-3-yl)amino]-(oxo)acetyl}-1H-pyrrole-2-carboxamide], for which the results for the EC50 in the series on HBV [1] (setting [4]) and in the series with HBV [2] (setting [5]) were 0.048 µM and 0.04 µM, respectively. This compound also came in with a CC50 at 4 days in series [3] above 25 µM.
Consider `Cn1cc(C(=O)C(=O)NC2(C)COC2)cc1C(=O)Nc1cc(F)c(F)c(Cl)c1` [Compound 17, N-(3-Chloro-4,5-difluorophenyl)-1-methyl-4-{[(3-methyloxetan-3-yl)-amino](oxo)acetyl}-1H-pyrrole-2-carboxamide], for which the EC50 in the series with HBV [1] (setting [4]) was found to be 0.029 µM; in the series with HBV [2] (setting [5]), 0.57 µM. This compound gave a CC50 at 4 days in series [3] above 25 µM.
For `C[C@@H](NC(=O)C(=O)c1cc(C(=O)Nc2cc(F)c(F)c(Cl)c2)n(C)c1)C(F)(F)F` [Compound 18, N-(3-Chloro-4,5-difluorophenyl)-1-methyl-4-(oxo{[(1R)-2,2,2-trifluoro-1-methylethyl]amino}acetyl)-1H-pyrrole-2-carboxamide], in that order: 0.054 µM, 0.37 µM and above 25 µM.
On to `Cc1c(C(=O)C(=O)NC(C)(C)C)c(C)n(C)c1C(=O)Nc1ccc(F)c(C#N)c1` [Compound 19, 4-[(tert-Butylamino)(oxo)acetyl]-N-(3-cyano-4-fluorophenyl)-1,3,5-trimethyl-1H-pyrrole-2-carboxamide], for which the EC50 with HBV [1] (setting [4]) is below 0.004 µM; with HBV [2] (setting [5]), 0.002 µM. In series [3], the CC50 at 4 days was above 100 µM.
In the case of `Cc1c(C(=O)C(=O)NC(C)(C)C)c(C)n(C)c1C(=O)Nc1ccc(F)c(F)c1` [Compound 20, 4-[(tert-Butylamino)(oxo)acetyl]-N-(3,4-difluorophenyl)-1,3,5-trimethyl-1H-pyrrole-2-carboxamide], the EC50 with HBV [1] (setting [4]) is below 0.004 µM; with HBV [2] (setting [5]) it was 0.002 µM. The same compound gave a CC50 at 4 days in series [3] above 25 µM.
As for `Cc1c(C(=O)C(=O)NC(C)(C)C)cn(C)c1C(=O)Nc1ccc(F)c(F)c1` [Compound 21, 4-[(tert-Butylamino)(oxo)acetyl]-N-(3,4-difluorophenyl)-1,3-dimethyl-1H-pyrrole-2-carboxamide], the figures for the EC50 in the series on HBV [1] (setting [4]) and in the series on HBV [2] (setting [5]) were 0.009 µM and 0.011 µM, respectively. In addition, the CC50 at 4 days in series [3] is above 25 µM.
As for `Cc1c(C(=O)C(=O)NC(C)(C)C)cn(C)c1C(=O)Nc1ccc(F)c(C#N)c1` [Compound 22, 4-[(tert-Butylamino)(oxo)acetyl]-N-(3-cyano-4-fluorophenyl)-1,3-dimethyl-1H-pyrrole-2-carboxamide], the EC50 in the series on HBV [1] (setting [4]) came out at 0.01 µM; with HBV [2] (setting [5]), 0.008 µM. In series [3], this compound yielded a CC50 at 4 days above 25 µM.
For `Cn1cc(C(=O)C(=O)NC(C)(C)C)c(Cl)c1C(=O)Nc1ccc(F)c(C#N)c1` [Compound 23, 4-[(tert-Butylamino)(oxo)acetyl]-3-chloro-N-(3-cyano-4-fluorophenyl)-1-methyl-1H-pyrrole-2-carboxamide], in that order: 0.005 µM, 0.008 µM and above 25 µM.
Regarding `C[C@@H](NC(=O)C(=O)c1cn(C)c(C(=O)Nc2ccc(F)c(C#N)c2)c1Cl)C(F)(F)F` [Compound 24, 3-chloro-N-(3-cyano-4-fluoro-phenyl)-1-methyl-4-[2-oxo-2-[[(1R)-2,2,2-trifluoro-1-methyl-ethyl]amino]acetyl]pyrrole-2-carboxamide], the values for the EC50 with HBV [1] (setting [4]) and in the series with HBV [2] (setting [5]) were 0.02 µM and 0.024 µM, respectively. In series [3], the CC50 at 4 days is above 25 µM.
With `Cc1c(C(=O)C(=O)N[C@H](C)C(F)(F)F)cc(C(=O)Nc2ccc(F)c(C#N)c2)n1C` [Compound 28, N-(3-cyano-4-fluoro-phenyl)-1,5-dimethyl-4-[2-oxo-2-[[(1R)-2,2,2-trifluoro-1-methyl-ethyl]amino]acetyl]pyrrole-2-carboxamide], the EC50 in the series on HBV [1] (setting [4]) is below 0.004 µM; in the series with HBV [2] (setting [5]), 0.019 µM. For the same compound, the CC50 at 4 days in series [3] was above 25 µM.
As to `Cc1c(C(=O)C(=O)N[C@H](C)C(F)(F)F)c(Cl)c(C(=O)Nc2ccc(F)c(C#N)c2)n1C` [Compound 30, 3-chloro-N-(3-cyano-4-fluoro-phenyl)-1,5-dimethyl-4-[2-oxo-2-[[(1R)-2,2,2-trifluoro-1-methyl-ethyl]amino]acetyl]pyrrole-2-carboxamide], the EC50 in the series with HBV [1] (setting [4]) is below 0.004 µM; in the series with HBV [2] (setting [5]) it was 0.003 µM. The cytotoxic concentration (CC50) at 4 days in series [3] was above 25 µM.
For `C[C@@H](NC(=O)C(=O)c1c(Cl)c(C(=O)Nc2ccc(F)c(C#N)c2)n(C)c1C1CC1)C(F)(F)F` [Compound 31, 3-chloro-N-(3-cyano-4-fluoro-phenyl)-5-cyclopropyl-1-methyl-4-[2-oxo-2-[[(1R)-2,2,2-trifluoro-1-methyl-ethyl]amino]acetyl]pyrrole-2-carboxamide] the same measures were 0.012 µM, 0.019 µM and above 25 µM.
For `Cc1c(C(=O)C(=O)NC(C)(C)C)c(Cl)c(C(=O)Nc2ccc(F)c(C#N)c2)n1C` [Compound 32, 4-[2-(tert-butylamino)-2-oxo-acetyl]-3-chloro-N-(3-cyano-4-fluoro-phenyl)-1,5-dimethyl-pyrrole-2-carboxamide], in that order: below 0.004 µM, below 0.004 µM and above 25 µM.

The EC50 is the midpoint of the concentration-response curve. In general, melting point refers to the temperature of the solid-liquid transition. As a reminder, the CC50 is the concentration that lowers cell viability or growth by half. Low values mean greater toxicity to the cells, high ones lower toxicity to the cells.
